Experimental data as given in DBAASP.
In brackets after ≈: the same amount, converted by molar mass.

Columns and labels:
Assay in all cases: ≥ marks a high value that may be exact or a test limit, other limits are often not marked, values filed in µg/mL are converted to µM
[1] = test system: Erwinia amylovora PMV 6076
[2] = test system: Pseudomonas syringae pv. syringae EPS 94
[3] = test system: Xanthomonas campestris pv. Vesicatoria 2133-2
Acinetobacter baumannii = test system: Acinetobacter baumannii
Enterococcus faecalis = test system: Enterococcus faecalis
Pseudomonas aeruginosa = test system: Pseudomonas aeruginosa
Staphylococcus aureus = test system: Staphylococcus aureus
Aspergillus fumigatus = test system: Aspergillus fumigatus
Candida albicans = test system: Candida albicans
Escherichia coli = test system: Escherichia coli
Klebsiella pneumoniae = test system: Klebsiella pneumoniae
[4] = test system: Staphylococcus epidermidis
[5] = test system: Bacillus subtilis CMCC 63501
[6] = test system: Enterococcus faecalis ATCC 29212
[7] = test system: Escherichia coli ATCC 25922
Escherichia coli UB1005 = test system: Escherichia coli UB1005
[8] = test system: Pseudomonas aeruginosa ATCC 27853
[9] = test system: Salmonella enterica subsp. enterica serovar Pullorum C79-13
[10] = test system: Salmonella enterica subsp. enterica serovar Typhimurium ATCC 14028
[11] = test system: Staphylococcus aureus ATCC 29213
[12] = test system: Staphylococcus epidermidis ATCC 12228
Proteus mirabilis = test system: Proteus mirabilis
Streptococcus pyogenes = test system: Streptococcus pyogenes

SMILES: CC[C@H](C)[C@H](NC(=O)[C@H](CCCCN)NC(=O)[C@H](CCCCN)NC(=O)[C@H](Cc1ccccc1)NC(=O)[C@H](CC(C)C)NC(=O)[C@H](CCCCN)NC(=O)[C@@H](N)CCCCN)C(=O)N[C@@H](CC(C)C)C(=O)N[C@@H](CCCCN)C(=O)N[C@@H](Cc1ccc(O)cc1)C(=O)N[C@@H](CC(C)C)C(=O)O [KKLFKKILKYL]
- MIC [1]: 8.66 µM (≈ 12.3 µg/mL)
- MIC [2]: 8.66 µM (≈ 12.3 µg/mL)
- MIC [3]: 14.1 µM (≈ 20.1 µg/mL)

SMILES: CC(C)C[C@H](NC(=O)[C@H](CC(C)C)NC(=O)[C@H](CCCCN)NC(=O)[C@H](CCCCN)NC(=O)[C@H](C)NC(=O)[C@H](CC(C)C)NC(=O)[C@H](C)NC(=O)[C@H](CCCCN)NC(=O)[C@H](CC(C)C)NC(=O)[C@H](Cc1c[nH]c2ccccc12)NC(=O)[C@H](Cc1c[nH]c2ccccc12)NC(=O)[C@H](CCCN=C(N)N)NC(=O)[C@H](Cc1c[nH]c2ccccc12)NC(=O)[C@H](CCCCN)NC(=O)[C@@H](N)CCCCN)C(N)=O [KKWRWWLKALAKKLL]
- MIC (Acinetobacter baumannii): 0.203 µM (≈ 0.4 µg/mL)
- MIC (Enterococcus faecalis): 0.356 µM (≈ 0.7 µg/mL)
- MIC (Pseudomonas aeruginosa): 0.61 µM (≈ 1.2 µg/mL)
- MIC (Staphylococcus aureus): 0.254 µM (≈ 0.5 µg/mL)

SMILES: CC(C)C[C@H](NC(=O)[C@H](Cc1ccccc1)NC(=O)[C@@H]1CCCN1C(=O)[C@H](Cc1c[nH]c2ccccc12)NC(=O)[C@H](CS)NC(=O)[C@@H](NC(=O)[C@H](Cc1c[nH]c2ccccc12)NC(=O)[C@@H]1CCCN1C(=O)[C@H](Cc1ccccc1)NC(=O)[C@H](CCCN=C(N)N)NC(=O)[C@H](CCCN=C(N)N)NC(=O)[C@@H](N)CCCN=C(N)N)C(C)C)C(=O)N[C@@H](CCCN=C(N)N)C(=O)N[C@@H](CCCN=C(N)N)C(=O)N[C@@H](CCCN=C(N)N)C(=O)O [RRRFPWVCWPFLRRR]
- MIC (Aspergillus fumigatus): ≥ 117 µM
- MIC (Candida albicans): 469 µM (≈ 1000 µg/mL)

SMILES: CC[C@H](C)[C@H](NC(=O)CNC(=O)[C@H](CCCN=C(N)N)NC(=O)[C@H](Cc1ccc(O)cc1)NC(=O)[C@H](CC(C)C)NC(=O)[C@H](CCCCN)NC(=O)CNC(=O)[C@H](Cc1ccccc1)NC(=O)[C@@H](N)Cc1c[nH]c2ccccc12)C(=O)N[C@H](C(=O)N[C@@H](CO)C(=O)N[C@H](C(=O)N[C@H](C(=O)N[C@@H](CCCCN)C(=O)N[C@@H](CCCCN)C(=O)N[C@H](C(=O)N[C@@H](CCCCN)C(=O)NCC(=O)N[C@@H](CC(C)C)C(=O)N[C@@H](CC(C)C)C(=O)N[C@@H](CO)C(=O)NCC(=O)O)C(C)C)C(C)C)C(C)C)[C@@H](C)O [WFGKLYRGITSVVKKVKGLLSG]
- MIC (Acinetobacter baumannii): 1.3 µM (≈ 3.17 µg/mL)
- MIC (Enterococcus faecalis): 2.6 µM (≈ 6.34 µg/mL)
- MIC (Escherichia coli): 1.3 µM (≈ 3.17 µg/mL)
- MIC (Klebsiella pneumoniae): 1.3 µM (≈ 3.17 µg/mL)
- MIC (Pseudomonas aeruginosa): 2.6 µM (≈ 6.34 µg/mL)
- MIC (Staphylococcus aureus): 10.3 µM (≈ 25.1 µg/mL)
- MIC [4]: 2.6 µM (≈ 6.34 µg/mL)

SMILES: C[C@H](NC(=O)[C@H](C)NC(=O)[C@H](CCCCN)NC(=O)[C@H](C)NC(=O)[C@H](C)NC(=O)[C@H](C)NC(=O)[C@H](CCCCN)NC(=O)[C@H](Cc1c[nH]c2ccccc12)NC(=O)[C@@H](N)Cc1c[nH]c2ccccc12)C(=O)N[C@@H](C)C(=O)N[C@@H](CCCCN)C(=O)N[C@@H](Cc1c[nH]c2ccccc12)C(=O)N[C@@H](Cc1c[nH]c2ccccc12)C(N)=O [WWKAAAKAAAKWW]
- MIC [5]: 4 µM (≈ 6.29 µg/mL)
- MIC [6]: 4 µM (≈ 6.29 µg/mL)
- MIC [7]: 2 µM (≈ 3.15 µg/mL)
- MIC (Escherichia coli UB1005): 4 µM (≈ 6.29 µg/mL)
- MIC [8]: 8 µM (≈ 12.6 µg/mL)
- MIC [9]: 2 µM (≈ 3.15 µg/mL)
- MIC [10]: 8 µM (≈ 12.6 µg/mL)
- MIC [11]: 4 µM (≈ 6.29 µg/mL)
- MIC [12]: 4 µM (≈ 6.29 µg/mL)

SMILES: NC(N)=NCCC[C@H](NC(=O)[C@H](CCCN=C(N)N)NC(=O)[C@H](CCCN=C(N)N)NC(=O)[C@H](CCCN=C(N)N)NC(=O)[C@H](CCCN=C(N)N)NC(=O)[C@H](CCCN=C(N)N)NC(=O)[C@H](CCCN=C(N)N)NC(=O)[C@H](CCCN=C(N)N)NC(=O)[C@H](Cc1c[nH]c2ccccc12)NC(=O)[C@@H](N)Cc1c[nH]c2ccccc12)C(=O)O [WWRRRRRRRR]
- MIC (Proteus mirabilis): ≥ 39 µM
- MIC (Pseudomonas aeruginosa): > 39 µM
- MIC (Staphylococcus aureus): 5.49 µM (≈ 9 µg/mL)
- MIC (Streptococcus pyogenes): 0.61 µM (≈ 1 µg/mL)
